The test system of test [1] is B16BI6 tumor. Nature of the test: B16BI6 melanoma model, tumor growth. Type of test: in vivo, mouse. Conditions: Example 5, alone or combined with birinapant. The source says:
FIG. 2A is a graph showing the change in B16BI6 tumor size in B16 mice treated with PBS, CD8-targeted chimeric protein (CD8-Actaferon) alone, BcII10 targeted mutated murine TNF (Y114L) alone, or CD8-targeted chimeric protein (CD8-Actaferon) and BcII10 targeted mutated murine TNF (Y114L). FIG. 2B is a graph showing the change in B16BI6 tumor size in B16 mice treated with PBS, CD8-targeted chimeric protein (CD8-Actaferon) alone, CD13 targeted mutated murine TNF (Y114L) alone, or CD8-targeted chimeric protein (CD8-Actaferon) and CD13 targeted mutated murine TNF (Y114L). […] Tumor growth is shown as mean TSI+SEM (n=6 per group). The line under the graph represents the treatment period. […] Error bars are SEM. ***, p<0.001 by one-way ANOVA with Bonferroni's multiple comparison test. […]
FIG. 7A: Toxicity of wt sc mTNF and mutant Y86F after injection (T) in naïve C56BU6 mice. […] FIG. 7B: Plasma IL-6 concentrations measured via ELISA. […]
FIG. 8A and 8B: B16BI6 tumor growth after daily p.1. treatment with 7 μg mTNF, 30 μg hTNF alone or in combination with 10000 IU mIFN-γ in wt C57BL/6 mice (a) or homozygous Flk1 dnIFN-γR transgenic mice. […] FIG. 8C: IL-8 concentration in HUVEC supernatant after 24 h stimulation with the indicated concentration of sc hTNF mutant Y87F (Y87F), hCD13-AFR or wt hTNF, alone or in combination with 200 ng/ml hIFN-γ, measured via ELISA. […]

The test system of test [2] is HUVEC. Nature of the test: IL-8 secretion by HUVECs (ELISA of supernatant). It counts as cell-based, human. Particulars: 24 h stimulation, 200 ng/ml hIFN-γ where used. The protocol: FIG. 8A and 8B: B16BI6 tumor growth after daily p.1. treatment with 7 μg mTNF, 30 μg hTNF alone or in combination with 10000 IU mIFN-γ in wt C57BL/6 mice (a) or homozygous Flk1 dnIFN-γR transgenic mice. The line under the graph represents the treatment period. Tumor growth is depicted as mean TSI, error bars are SEM (n=5 per group). FIG. 8C: IL-8 concentration in HUVEC supernatant after 24 h stimulation with the indicated concentration of sc hTNF mutant Y87F (Y87F), hCD13-AFR or wt hTNF, alone or in combination with 200 ng/ml hIFN-γ, measured via ELISA. Error bars are SEM. ns, non-significant; p<0.01; ***, p<0.001 by one-way ANOVA with Bonferroni's multiple comparison test. FIG. 8D: Schematic representation of AFN-II, consisting of a VHH fused via a 20×GGS linker to an engineered IFN-γ (e-IFN-γ) variant and N-terminal affinity tag. FIG. 8E: Viability of B16BI6 parental or mCD20-expressing cells after 72 h stimulation with wt mIFN-γ or de18 mutant fused to a BcII10 or mCD20 VHH, in the presence of 60 ng/ml mTNF. Cell viability was measured via an ATP luminescence assay. Each point is the mean of three replicates and error bars are SEM.
It was also tested whether IFN-γ could sensitize HUVECs to TNF, using either wtTNF or hCD13-AFR.
On the technique in general: An ELISA detects its analyte on a solid surface through an enzyme-linked reagent.

Regarding `CC[C@H](NC(=O)[C@H](C)NC)C(=O)N1C[C@@H](O)C[C@H]1Cc1c(-c2[nH]c3cc(F)ccc3c2C[C@@H]2C[C@H](O)CN2C(=O)[C@H](CC)NC(=O)[C@H](C)NC)[nH]c2cc(F)ccc12` [birinapant], in test [1], the “Tumor growth (FIG. 5A)” value is “very little effect on tumor growth”.

B1: IFN-γ: human IFN-γ used on HUVECs, 200 ng/ml (protein)
chain: QDPYVKEAENLKKYFNAGHSDVADNGTLFLGILKNWKEESDRKIMQSQIVSFYFKLFKNFKDDQSIQKSVETIKEDMNVKFFNSNKKKRDDFEKLTNYSVTDLNVQRKAIHELIQVMAELSPAAKTGKRKRSQMLFRGRRASQ
As for B1, the “IL-8 secretion by HUVECs” value in test [2] is listed as “no effect on IL-8 secretion”.

Values taken from US12544426B2, “Combination therapy with CD13-targeted chimeric proteins or chimeric protein complexes” (Orionis Biosciences, Inc., priority 2019, dated 2026).
